Data as given in patent publication US8329707B2, “Substituted pyrazine compounds” (Astellas Pharma Inc., priority 2008, dated 2012).

Columns and labels:
[1] = target: T1, recombinant human hepatic type GK (GST-hGK2) (Homo sapiens, UniProt P35557); test: Measurement of glucokinase (GK) activation; format: biochemical; conditions: 10 min; test compound final concentration 10 μM; 5 mM glucose; 27° C.; increase of absorbance at 340 nm during first 10 minutes vs DMSO; read-out: GK activation (%)
T1 construct: made in house; host or cells: Escherichia coli BL21
T1 sequence (P35557 1-466 isoform P35557-2): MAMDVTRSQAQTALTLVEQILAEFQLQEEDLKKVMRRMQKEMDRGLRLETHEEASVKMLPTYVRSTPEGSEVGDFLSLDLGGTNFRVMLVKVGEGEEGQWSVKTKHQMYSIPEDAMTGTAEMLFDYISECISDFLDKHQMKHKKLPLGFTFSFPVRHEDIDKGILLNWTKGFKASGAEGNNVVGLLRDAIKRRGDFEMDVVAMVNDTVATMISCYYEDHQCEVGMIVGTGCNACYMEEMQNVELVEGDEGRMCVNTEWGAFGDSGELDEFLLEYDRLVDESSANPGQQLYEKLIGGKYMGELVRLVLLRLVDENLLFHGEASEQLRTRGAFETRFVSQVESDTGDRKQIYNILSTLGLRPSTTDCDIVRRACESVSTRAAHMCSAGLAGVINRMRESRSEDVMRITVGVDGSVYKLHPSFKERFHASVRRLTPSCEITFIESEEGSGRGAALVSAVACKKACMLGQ
Protocol: The present test was carried out in accordance with the method described in Science 301: 370-373, 2003 and with partial modification thereof. Hereinafter, the summary is described.
First, the cloning of GK (GenBank No. AK122876) was carried out. 5′-[…]-3′(SEQ ID NO: 1) and 5′-[…]-3′(SEQ ID NO: 2) were used as primers, and pME18S-FL3-Glucokinase isoform 2 was used as a template to carry out PCR. The obtained reaction product was TA-cloned into a pGEM-T easy vector, digested with EcoRI and XhoI, and introduced to the pGEX-5X-1 vector digested in the same manner by ligation. By using this plasmid DNA (pGEX-human Glucokinase 2), a recombinant human hepatic type GK (GST-hGK2) fused with GST (Glutathione S-transferase) was expressed in Escherichia coli (BL21 strain) and purified by Glutathione Sepharose.
The reaction of GK was carried out at 27° C. on a 96-well plate. First, 1 μL of the test compound (final concentration 10 μM) that has been diluted with dimethylsulfoxide (DMSO) was added to 89 μL of an enzyme mixed liquid (all final concentration 25 mM HEPES pH 7.4, 25 mM KCl, 2 mM MgCl2, 1 mM ATP, 0.1% BSA, 1 mM DTT, 1 mM NADP (nicotinamide adenine dinucleotide phosphate), 2.5 U/ml glucose-6-phosphate dehydrogenase, GST-hGK2 adjusted to ΔODCont of about 0.05 to 0.10). Subsequently, 10 μL of a substrate solution (final concentration 5 mM glucose) was added to start the reaction. In order to quantify a final product NADPH, an absorbance at a wavelength of 340 nm was measured, and the GK activation (%) of the test compound was calculated from the increase of absorbance during the first 10 minutes (ΔOD) after initiation of the reaction. GK activation (%)=[(ΔODTest)−(ΔODCont)]/(ΔODCont)×100
ΔODTest: ΔOD at test compound

[2] = system: ICR mouse; test: Oral glucose tolerance test in normal mouse; format: in vivo; conditions: ICR mouse fasted overnight; 10 mg/kg oral, glucose loading after 30 minutes; AUC lowering rate of blood glucose up to 2 hours after glucose loading vs solvent control
Protocol: (§1) The test compound was dissolved in a solvent (5% Cremophor, aqueous 5% DMSO solution), and to an ICR mouse after fasting overnight was orally administered 10 mg/kg of the test compound, and after 30 minutes, oral glucose loading was carried out. Immediately before the administration of the test compound, immediately before the glucose loading, and 0.25, 0.5, 1, and 2 hours after the glucose loading, blood was collected and blood glucose levels were measured. An AUC lowering rate (%) of the blood glucose levels from immediately before the glucose loading to 2 hours after the glucose loading with respect to that of the solvent control group was calculated.

[3] = system: C57BL/6 mice after loading a high fat diet; test: Oral glucose tolerance test in mouse fed high fat diet; format: in vivo; conditions: high fat diet about 30 days, fasted overnight, 1 mg/kg oral, glucose loading after 30 minutes, AUC lowering rate of blood glucose up to 2 hours vs solvent control
Protocol: The test compound was dissolved in a solvent (5% Cremophor, aqueous 5% DMSO solution), and to a C57BL/6 mice after loading a high fat diet for about 30 days and then fasting overnight was orally administered 1 mg/kg of the test compound, and after 30 minutes, oral glucose loading was carried out. Immediately before the administration of the test compound, immediately before the glucose loading, and 0.25, 0.5, 1, and 2 hours after the glucose loading, blood was collected and blood glucose levels were measured. An AUC lowering rate (%) of the blood glucose levels from immediately before the glucose loading to 2 hours after the glucose loading with respect to that of the solvent control was calculated.

[4] = system: SD rat; test: Oral glucose tolerance test in normal rat; format: in vivo; conditions: SD rat fasted overnight; 1 mg/kg oral, glucose loading after 30 minutes; AUC lowering rate of blood glucose up to 2 hours vs solvent control
Protocol: as §1, with “SD rat” for “ICR mouse”, “1” for “10”, “and” for “and 0.25,”, “control” for “control group”

| Structure (SMILES) | activation at 10 µM [1] [%] | inhibition in vivo at 10 mg/kg [2] [%] | Blood glucose lowering rate (%) [3] [%] | Blood glucose lowering rate (%) [4] [%] |
| --- | --- | --- | --- | --- |
| Cn1ccc(NC(=O)/C(=C/[C@H]2CCC(=O)C2)c2ccc(S(=O)(=O)C3CC3)c(C3CC3)c2)n1 [Example 4-1, (2E)-2-[3-cyclopropyl-4-(cyclopropylsulfonyl)phenyl]-N-(1-methyl-1H-pyrazol-3-yl)-3-[(1S)-3-oxocyclopentyl]acrylamide] | 355 | 39 | 32 | 25 |
| O=C1CC[C@H](C[C@@H](C(=O)Nc2cnc(OCCO)cn2)c2ccc(S(=O)(=O)C3CC3)c(C3CC3)c2)C1 [Example 11, (2R)-2-[3-cyclopropyl-4-(cyclopropylsulfonyl)phenyl]-N-[5-(2-hydroxyethoxy)pyrazin-2-yl]-3-[(1R)-3-oxocyclopentyl]propanamide] | 433 | 50 | – | 20 |
| O=C1CC[C@H](C[C@@H](C(=O)Nc2cnc(CO)cn2)c2ccc(S(=O)(=O)C3CC3)c(C3CC3)c2)C1 [Example 15, (2R)-2-[3-cyclopropyl-4-(cyclopropylsulfonyl)phenyl]-N-[5-(hydroxymethyl)pyrazin-2-yl]-3-[(1R)-3-oxocyclopentyl]propanamide] | 284 | 49 | – | 22 |
| Cn1ccc(NC(=O)/C(=C/[C@H]2CC[C@H](O)C2)c2ccc(S(=O)(=O)C3CC3)c(C3CC3)c2)n1 [Example 22-1, 2(E)-[3-cyclopropyl-4-(cyclopropylsulfonyl)phenyl]-3-[(1S,3S)-3-hydroxycyclopentyl]-N-(1-methyl-1H-pyrazol-3-yl)acrylamide] | 197 | 55 | – | 27 |
| Cn1ccc(NC(=O)/C(=C/[C@H]2CC[C@@H](O)C2)c2ccc(S(=O)(=O)C3CC3)c(C3CC3)c2)n1 [Example 22-2, 2(E)-[3-cyclopropyl-4-(cyclopropylsulfonyl)phenyl]-3-[(1S,3R)-3-hydroxycyclopentyl]-N-(1-methyl-1H-pyrazol-3-yl)acrylamide] | 199 | 52 | – | 25 |
| Cc1cnc(NC(=O)/C(=C/[C@H]2CCC(=O)C2)c2ccc(S(=O)(=O)C3CC3)c(C3CC3)c2)cn1 [Example 36] | 332 | 45 | 43 | 40 |

Second part, led by results:

| activation at 10 µM [1] [%] | Structure (SMILES) | inhibition in vivo at 10 mg/kg [2] [%] | Blood glucose lowering rate (%) [3] [%] | Blood glucose lowering rate (%) [4] [%] |
| --- | --- | --- | --- | --- |
| 315 | Cc1cnc(NC(=O)[C@H](C[C@H]2CCC(=O)C2)c2ccc(S(=O)(=O)C3CC3)c(C3CC3)c2)cn1 [Example 55] | 56 | – | – |
| 282 | O=C1CC[C@H](C[C@@H](C(=O)Nc2cnc(Cl)cn2)c2ccc(S(=O)(=O)C3CC3)c(C3CC3)c2)C1 [Example 70] | 60 | – | – |
| 311 | COc1cnc(NC(=O)[C@H](C[C@H]2CCC(=O)C2)c2ccc(S(=O)(=O)C3CC3)c(C3CC3)c2)cn1 [Example 72] | 59 | – | – |
| 273 | Cc1cnc(NC(=O)[C@H](C[C@H]2CCC(O)C2)c2ccc(S(=O)(=O)C3CC3)c(C3CC3)c2)cn1 (stereo partly drawn) [Example 78] | 50 | – | – |
| 297 | COc1cnc(NC(=O)[C@H](C[C@H]2CCC(O)C2)c2ccc(S(=O)(=O)C3CC3)c(C3CC3)c2)cn1 (stereo partly drawn) [Example 79] | 45 | – | – |
| 345 | CC(O)c1cnc(NC(=O)[C@H](C[C@H]2CCC(=O)C2)c2ccc(S(=O)(=O)C3CC3)c(C3CC3)c2)cn1 (stereo partly drawn) [Example 83] | 51 | – | 17 |
